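Compound exposure: 48 hours, 5 concentrations, 96-well plates. GI50: concentration for 50% inhibition of growth. Definition used: TGI = concentration required for complete inhibition of growth.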
What was measured:
Assay in all cases: NCI anticancer screen, dose series, 48 h
[1] = system: ACHN renal
[2] = system: KM12 colon
[3] = system: RXF 393 renal
[4] = system: NCI-H226 lung
[5] = system: HOP-92 NSCLC
[6] = system: OVCAR-3 ovarian
[7] = system: LOX IMVI melanoma
[8] = system: SW-620 colon
[9] = system: CCRF-CEM leukemia
[10] = system: HCT-15 colon
[11] = system: UO-31 renal
[12] = system: HL-60(TB) leukemia
[13] = system: OVCAR-8 ovarian
[14] = system: A498 renal
[15] = system: HS 578T breast
[16] = system: NCI-H522 lung
[17] = system: SF-539 CNS
[18] = system: HT29 colon
[19] = system: HOP-62 NSCLC
[20] = system: MDA-MB-231 breast
[21] = system: MCF7 breast
[22] = system: U251 CNS
[23] = system: SK-OV-3 ovarian
[24] = system: COLO 205 colon
[25] = system: NCI/ADR-RES ovarian
[26] = system: TK-10 renal
[27] = system: SNB-75 CNS
[28] = system: 786-0 renal
[29] = system: SK-MEL-2 melanoma
[30] = system: SN12C renal
[31] = system: T-47D breast
[32] = system: OVCAR-4 ovarian
[33] = system: CAKI-1 renal
[34] = system: MALME-3M melanoma
[35] = system: A549 NSCLC
[36] = system: OVCAR-5 ovarian
[37] = system: SF-295 CNS
[38] = system: UACC-257 melanoma
[39] = system: M14 melanoma
[40] = system: BT-549 breast
[41] = system: NCI-H460 lung
[42] = system: DU-145 prostate
[43] = system: K-562 leukemia
[44] = system: SNB-19 CNS
[45] = system: SR leukemia
[46] = system: MDA-MB-435
[47] = system: RPMI-8226 leukemia
[48] = system: IGROV1 ovarian
[49] = system: HCC-2998 colon
[50] = system: MOLT-4 leukemia
[51] = system: SK-MEL-28 melanoma
[52] = system: SK-MEL-5 melanoma
[53] = system: HCT-116 colon
[54] = system: SF-268 CNS
[55] = system: PC-3 prostate
[56] = system: UACC-62 melanoma
[57] = system: NCI-H23 lung

CC#Cc1nc2ccccc2c(=O)[nH]1
GI50 [1]: 3.65 µM
TGI [1]: 23.3 µM
GI50 [2]: 2.68 µM
TGI [2]: 6.58 µM
GI50 [3]: 1.57 µM
TGI [3]: 3.27 µM
GI50 [4]: 2.3 µM
TGI [4]: 5.84 µM
GI50 [5]: 2.3 µM
TGI [5]: 7.74 µM
GI50 [6]: 2.11 µM
TGI [6]: 4.16 µM
GI50 [7]: 1.82 µM
TGI [7]: 3.43 µM
GI50 [8]: 3.7 µM
TGI [8]: 23 µM
GI50 [9]: 2.62 µM
TGI [9]: 25.4 µM
GI50 [10]: 2.73 µM
TGI [10]: 8.91 µM
GI50 [11]: 3.18 µM
TGI [11]: 8.87 µM
GI50 [12]: 3.11 µM
TGI [12]: 9.62 µM
GI50 [13]: 4.89 µM
TGI [13]: 64.9 µM
GI50 [14]: 1.38 µM
TGI [14]: 2.74 µM
GI50 [15]: 4.92 µM
TGI [15]: > 100 µM
GI50 [16]: 5.27 µM
TGI [16]: 16.7 µM
GI50 [17]: 2.76 µM
TGI [17]: 9.14 µM
GI50 [18]: 3.79 µM
TGI [18]: 13.9 µM
GI50 [19]: 3.18 µM
TGI [19]: 9.43 µM
GI50 [20]: 2.1 µM
TGI [20]: 4.71 µM
GI50 [21]: 3.07 µM
TGI [21]: > 100 µM
GI50 [22]: 3.42 µM
TGI [22]: 12.8 µM
GI50 [23]: 41.7 µM
TGI [23]: > 100 µM
GI50 [24]: 2.03 µM
TGI [24]: 3.7 µM
GI50 [25]: 3.89 µM
TGI [25]: 63.9 µM
GI50 [26]: 5.06 µM
TGI [26]: 26.3 µM
GI50 [27]: 2.09 µM
TGI [27]: 6.43 µM
GI50 [28]: 4.23 µM
TGI [28]: 14.7 µM
GI50 [29]: 3.2 µM
TGI [29]: 7.21 µM
GI50 [30]: 3.02 µM
TGI [30]: 9.8 µM
GI50 [31]: 5.71 µM
TGI [31]: 23 µM
GI50 [32]: 4.15 µM
TGI [32]: 27.5 µM
GI50 [33]: 6.15 µM
TGI [33]: 28.3 µM
GI50 [34]: 4.21 µM
TGI [34]: 15 µM
GI50 [35]: 4.9 µM
TGI [35]: 34.2 µM
GI50 [36]: 6.1 µM
TGI [36]: 27.1 µM
GI50 [37]: 4.1 µM
TGI [37]: 20.6 µM
GI50 [38]: 3.4 µM
TGI [38]: 15.4 µM
GI50 [39]: 3.28 µM
TGI [39]: 9.71 µM
GI50 [40]: 2.34 µM
TGI [40]: 5.18 µM
GI50 [41]: 3.89 µM
TGI [41]: 20.2 µM
GI50 [42]: 4.88 µM
TGI [42]: > 100 µM
GI50 [43]: 3.93 µM
TGI [43]: > 100 µM
GI50 [44]: 13.3 µM
TGI [44]: 52.3 µM
GI50 [45]: 2.38 µM
TGI [45]: 19 µM
GI50 [46]: 2.04 µM
TGI [46]: 5.35 µM
GI50 [47]: 1.52 µM
TGI [47]: 5.73 µM
GI50 [48]: 2.51 µM
TGI [48]: 6.97 µM
GI50 [49]: 1.99 µM
TGI [49]: 4.17 µM
GI50 [50]: 2.9 µM
TGI [50]: 8.51 µM
GI50 [51]: 4.55 µM
TGI [51]: 33.9 µM
GI50 [52]: 1.65 µM
TGI [52]: 3.32 µM
GI50 [53]: 3.24 µM
TGI [53]: 13 µM
GI50 [54]: 3.17 µM
TGI [54]: 11.1 µM

COc1cc(Nc2cc(C)nc(N3CCN(c4ccnc5cc(Cl)ccc45)CC3)n2)cc(OC)c1
GI50 [1]: 0.0727 µM
TGI [1]: > 100 µM
GI50 [2]: 0.0323 µM
TGI [2]: 4.73 µM
GI50 [3]: 0.0354 µM
TGI [3]: 0.286 µM
GI50 [4]: 0.362 µM
GI50 [5]: 0.0973 µM
TGI [5]: 4.68 µM
GI50 [6]: 0.0662 µM
TGI [6]: 0.437 µM
GI50 [7]: 0.133 µM
TGI [7]: 2.82 µM
GI50 [8]: 0.146 µM
TGI [8]: > 100 µM
GI50 [9]: 0.268 µM
TGI [9]: > 100 µM
GI50 [10]: 0.0561 µM
TGI [10]: > 100 µM
GI50 [11]: 0.139 µM
TGI [11]: > 100 µM
GI50 [12]: 0.24 µM
TGI [12]: 20.8 µM
GI50 [13]: 0.337 µM
TGI [13]: > 79.1 µM
GI50 [55]: 0.245 µM
TGI [55]: > 100 µM
GI50 [14]: 0.0842 µM
TGI [14]: 0.658 µM
GI50 [15]: 0.176 µM
TGI [15]: > 100 µM
GI50 [16]: 0.0501 µM
TGI [16]: 0.651 µM
GI50 [18]: 0.266 µM
TGI [18]: 2.08 µM
GI50 [19]: 0.194 µM
TGI [19]: 14.3 µM
GI50 [21]: 0.0324 µM
TGI [21]: > 100 µM
GI50 [22]: 0.268 µM
TGI [22]: > 100 µM
GI50 [23]: 0.253 µM
TGI [23]: > 78.9 µM
GI50 [24]: 0.202 µM
TGI [24]: 0.537 µM
GI50 [25]: 0.155 µM
TGI [25]: 1.24 µM
GI50 [26]: 0.538 µM
TGI [26]: 41.3 µM
GI50 [27]: 0.142 µM
TGI [27]: 1.06 µM
GI50 [28]: 0.153 µM
TGI [28]: 5.82 µM
GI50 [29]: 0.186 µM
TGI [29]: > 100 µM
GI50 [30]: 0.309 µM
TGI [30]: > 100 µM
GI50 [31]: 2.36 µM
TGI [31]: > 100 µM
GI50 [32]: 0.128 µM
TGI [32]: > 100 µM
GI50 [33]: 0.198 µM
TGI [33]: > 100 µM
GI50 [34]: 5.08 µM
TGI [34]: > 100 µM
GI50 [35]: 0.227 µM
TGI [35]: > 39.7 µM
GI50 [36]: 0.487 µM
TGI [36]: > 100 µM
GI50 [37]: 0.0496 µM
TGI [37]: 0.439 µM
GI50 [38]: 0.907 µM
TGI [38]: > 100 µM
GI50 [40]: 0.498 µM
TGI [40]: 6.61 µM
GI50 [56]: 0.0955 µM
TGI [56]: > 71.7 µM
GI50 [41]: 0.18 µM
TGI [41]: > 32.3 µM
GI50 [42]: 0.318 µM
GI50 [43]: 0.108 µM
TGI [43]: > 61.9 µM
GI50 [44]: 0.318 µM
TGI [44]: > 100 µM
GI50 [45]: 0.169 µM
TGI [45]: 3.3 µM
GI50 [46]: 0.0306 µM
TGI [46]: 0.105 µM
GI50 [47]: 0.313 µM
TGI [47]: 3.51 µM
GI50 [48]: 0.267 µM
TGI [48]: > 100 µM
GI50 [49]: 0.222 µM
TGI [49]: 4.22 µM
GI50 [50]: 0.4 µM
TGI [50]: > 40.9 µM
GI50 [51]: 0.0993 µM
TGI [51]: > 100 µM
GI50 [52]: 0.0778 µM
TGI [52]: 0.351 µM
GI50 [53]: 0.103 µM
TGI [53]: 5.45 µM
GI50 [57]: 0.302 µM
TGI [57]: > 100 µM
GI50 [54]: 0.377 µM
TGI [54]: > 100 µM
